Measured values as given in PubChem BioAssay (NCI).
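A five-concentration, 48-hour dose response in 96-well plates underlies each endpoint, interpolated linearly between surrounding concentrations. At the GI50, growth is halved. TGI: concentration producing complete growth inhibition.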

What was measured:
Test in all cases: DTP human tumour cell line panel, 48 h
[1] = tested on: 786-0 renal
[2] = tested on: A549 NSCLC
[3] = tested on: ACHN renal
[4] = tested on: BT-549 breast
[5] = tested on: CAKI-1 renal
[6] = tested on: CCRF-CEM leukemia
[7] = tested on: COLO 205 colon
[8] = tested on: DU-145 prostate
[9] = tested on: EKVX NSCLC
[10] = tested on: HCC-2998 colon
[11] = tested on: HCT-116 colon
[12] = tested on: HCT-15 colon
[13] = tested on: HL-60(TB) leukemia
[14] = tested on: HOP-62 NSCLC
[15] = tested on: HOP-92 NSCLC
[16] = tested on: HT29 colon
[17] = tested on: IGROV1 ovarian
[18] = tested on: K-562 leukemia
[19] = tested on: KM12 colon
[20] = tested on: LOX IMVI melanoma
[21] = tested on: M14 melanoma
[22] = tested on: MDA-MB-231 breast
[23] = tested on: MDA-MB-435
[24] = tested on: MOLT-4 leukemia
[25] = tested on: NCI-H226 lung
[26] = tested on: NCI-H23 lung
[27] = tested on: NCI-H460 lung
[28] = tested on: NCI-H522 lung
[29] = tested on: NCI/ADR-RES ovarian
[30] = tested on: OVCAR-3 ovarian
[31] = tested on: OVCAR-4 ovarian
[32] = tested on: OVCAR-5 ovarian
[33] = tested on: OVCAR-8 ovarian
[34] = tested on: PC-3 prostate
[35] = tested on: RPMI-8226 leukemia
[36] = tested on: RXF 393 renal
[37] = tested on: SF-268 CNS
[38] = tested on: SF-295 CNS
[39] = tested on: SF-539 CNS
[40] = tested on: SK-MEL-2 melanoma
[41] = tested on: SK-MEL-28 melanoma
[42] = tested on: SK-MEL-5 melanoma
[43] = tested on: SK-OV-3 ovarian
[44] = tested on: SN12C renal
[45] = tested on: SNB-19 CNS
[46] = tested on: SNB-75 CNS
[47] = tested on: SR leukemia
[48] = tested on: SW-620 colon
[49] = tested on: TK-10 renal
[50] = tested on: U251 CNS
[51] = tested on: UACC-257 melanoma
[52] = tested on: UACC-62 melanoma
[53] = tested on: UO-31 renal
[54] = tested on: A498 renal
[55] = tested on: HS 578T breast
[56] = tested on: T-47D breast
[57] = tested on: MALME-3M melanoma

Structure (SMILES): O=c1cc(-c2ccccc2)oc2ccc(OC/C(=N/O)c3ccc(F)cc3)cc12
- GI50 [1]: 8.97 µM
- TGI [1]: > 50 µM
- GI50 [2]: 7.12 µM
- TGI [2]: > 50 µM
- GI50 [3]: 10.3 µM
- TGI [3]: > 50 µM
- GI50 [4]: 1.01 µM
- TGI [4]: 2.67 µM
- GI50 [5]: 3.57 µM
- TGI [5]: 16.2 µM
- GI50 [6]: 3.24 µM
- TGI [6]: 17.1 µM
- GI50 [7]: 2.23 µM
- TGI [7]: 8.19 µM
- GI50 [8]: 3.1 µM
- TGI [8]: 15.6 µM
- GI50 [9]: 1.97 µM
- TGI [9]: 15.8 µM
- GI50 [10]: 4.41 µM
- TGI [10]: 12.5 µM
- GI50 [11]: 2.97 µM
- TGI [11]: 9.05 µM
- GI50 [12]: 2.99 µM
- TGI [12]: 14.5 µM
- GI50 [13]: 1.97 µM
- TGI [13]: 13.9 µM
- GI50 [14]: 8.79 µM
- TGI [14]: > 50 µM
- GI50 [15]: 11.4 µM
- TGI [15]: 41.5 µM
- GI50 [16]: 2.1 µM
- TGI [16]: 41.6 µM
- GI50 [17]: 21.7 µM
- TGI [17]: > 50 µM
- GI50 [18]: 2.61 µM
- TGI [18]: > 50 µM
- GI50 [19]: 1.6 µM
- TGI [19]: 6.01 µM
- GI50 [20]: 5.46 µM
- TGI [20]: 12.3 µM
- GI50 [21]: 4.48 µM
- TGI [21]: > 50 µM
- GI50 [22]: 6.16 µM
- TGI [22]: 27.2 µM
- GI50 [23]: 0.913 µM
- TGI [23]: 1.98 µM
- GI50 [24]: 3.54 µM
- TGI [24]: > 50 µM
- GI50 [25]: 13.6 µM
- TGI [25]: > 50 µM
- GI50 [26]: 5.43 µM
- TGI [26]: 38.4 µM
- GI50 [27]: 2.54 µM
- TGI [27]: 12.1 µM
- GI50 [28]: 4.68 µM
- TGI [28]: > 50 µM
- GI50 [29]: 2.97 µM
- TGI [29]: 12.8 µM
- GI50 [30]: 1.67 µM
- TGI [30]: 7.2 µM
- GI50 [31]: 25.3 µM
- TGI [31]: > 50 µM
- GI50 [32]: 16.4 µM
- TGI [32]: > 50 µM
- GI50 [33]: 8.44 µM
- TGI [33]: > 50 µM
- GI50 [34]: 2.72 µM
- TGI [34]: 12.3 µM
- GI50 [35]: 3 µM
- TGI [35]: 14.9 µM
- GI50 [36]: 9.99 µM
- TGI [36]: 26.1 µM
- GI50 [37]: 3.62 µM
- TGI [37]: 14.3 µM
- GI50 [38]: 1.79 µM
- TGI [38]: 8.12 µM
- GI50 [39]: 1.92 µM
- TGI [39]: 4.06 µM
- GI50 [40]: 12.3 µM
- TGI [40]: > 50 µM
- GI50 [41]: 3.33 µM
- TGI [41]: 16.2 µM
- GI50 [42]: 1.61 µM
- TGI [42]: 6.23 µM
- GI50 [43]: 4.9 µM
- TGI [43]: 30.7 µM
- GI50 [44]: 6.59 µM
- TGI [44]: 14.5 µM
- GI50 [45]: 5.1 µM
- TGI [45]: > 50 µM
- GI50 [46]: 4.64 µM
- TGI [46]: > 50 µM
- GI50 [47]: 2.09 µM
- TGI [47]: > 50 µM
- GI50 [48]: 2.67 µM
- TGI [48]: 32.8 µM
- GI50 [49]: > 50 µM
- TGI [49]: > 50 µM
- GI50 [50]: 3.03 µM
- TGI [50]: 43.7 µM
- GI50 [51]: 9.77 µM
- TGI [51]: 38.2 µM
- GI50 [52]: 5.5 µM
- TGI [52]: 22.8 µM
- GI50 [53]: 10.8 µM
- TGI [53]: > 50 µM

Structure (SMILES): N#Cc1ccc(CSc2ncnc3nc[nH]c23)cc1
- GI50 [54]: 80 µM
- GI50 [2]: 92.4 µM
- GI50 [3]: 38.4 µM
- GI50 [4]: 95 µM
- GI50 [6]: 95.1 µM
- GI50 [7]: 52.2 µM
- GI50 [9]: 90.1 µM
- GI50 [15]: 15.8 µM
- TGI [15]: 79.5 µM
- GI50 [55]: 72 µM
- GI50 [16]: 77.3 µM
- GI50 [18]: 63.7 µM
- GI50 [22]: 94.4 µM
- GI50 [23]: 79 µM
- GI50 [24]: 92.8 µM
- GI50 [27]: 43 µM
- GI50 [29]: 54.3 µM
- GI50 [31]: 97.4 µM
- GI50 [35]: 54.9 µM
- GI50 [46]: 6.86 µM
- TGI [46]: 66.3 µM
- GI50 [56]: 80.7 µM
- GI50 [49]: 37.3 µM
- GI50 [51]: 73.3 µM
- GI50 [53]: 30.7 µM

Structure (SMILES): CCCCNCCC(O)c1cc2ccc(C(F)(F)F)cc2c2cc(C(F)(F)F)ccc12 (configuration not stated)
- GI50 [54]: 1.32 µM
- TGI [54]: 2.64 µM
- GI50 [7]: 0.339 µM
- TGI [7]: 1.07 µM
- GI50 [8]: 1.87 µM
- TGI [8]: 3.38 µM
- GI50 [15]: 1.1 µM
- TGI [15]: 2.44 µM
- GI50 [57]: 1.96 µM
- TGI [57]: 3.87 µM
- GI50 [32]: 1.61 µM
- TGI [32]: 3.13 µM
- GI50 [35]: 2.04 µM
- TGI [35]: 4.63 µM
- GI50 [42]: 1.69 µM
- TGI [42]: 3.06 µM
- GI50 [44]: 1.82 µM
- TGI [44]: 3.41 µM
- GI50 [48]: 1.3 µM
- TGI [48]: 2.79 µM
- GI50 [49]: 1.88 µM
- TGI [49]: 3.39 µM
- GI50 [51]: 1.52 µM
- TGI [51]: 3.02 µM
- GI50 [52]: 1.78 µM
- TGI [52]: 3.35 µM
